Results published in patent publication US11472799B2, “Serine threonine kinase (AKT) degradation / disruption compounds and methods of use” (Icahn School of Medicine at Mount Sinai, priority 2018, dated 2022).

Test system: AKT
Assay: Western blot of AKT protein levels and downstream signaling in BT474 cells
Type: cell-based, human
Details: Western blot (FIGS. 1, 3, 4)
Method: PC-3, U87MG, HCC1143, MDA-MB-231, MDA-MB-468, BT474 and MCF-7 cell lines were purchased from ATCC. Cell lines were regularly tested in the lab for mycoplasma. All cells were cultured at 37° C. and 5% CO2. PC-3, U87MG, MDA-MB-231, MCF-7 and BT474 cells were cultured in 1×DMEM (Corning, 10-013-CV) with 10% fetal bovine serum (Atlanta Biologicals S11150) and 1× Penicillin/Streptomycin. HCC1143 cells were cultured in RPMI (Corning, 10-040-CV) medium with 10% fetal bovine serum (Atlanta Biologicals S11150) and 1× Penicillin/Streptomycin. Cells were split using 0.05% or 0.25% trypsin (Corning 25-051-Cl or 25-053-Cl, respectively) before they reached full confluence and media was changed every 3-4 days. Cells were treated with compounds individually at different concentrations for 24 hrs. Cells were treated with DMSO, VHL, or PML alone as controls.
Cells were lysed in 2× sample buffer (125 mM Tris-HCl at pH 6.8, 10% βME, 2% SDS, 20% glycerol, 0.05% Bromophenol Blue, 8 M urea). Protein lysates were loaded into 4-12% Bis-Tris gels and resolved by electrophoresis. Samples were then blotted on PVDF membrane (Millipore IPVH00010) using the wet transfer technique (Invitrogen). Membranes were blocked in 5% milk-TBST for 1 hour, washed in TBST for 10 min, and incubated in primary antibody in 5% milk-TBST or 5% BSA-TBST at 4° C. for 16 h. Membranes were rinsed (3×6 min) in TBST and incubated in horseradish peroxidase-conjugated secondary antibodies in 5% milk-TBST for 1 hour and rinsed again in TBST (3×6 min). Membranes were visualized using the chemiluminescence system (Thermo 34080, 37075) on autoradiography film (Denville E3018). Primary Antibodies: R-actin (Sigma A5316), p-AKT (Ser473 CST-9721), total AKT (CST-9272), p-S6 (Ser240/244, CST-5364), p-PRAS40 (Thr246, CST-2997). Secondary Antibodies: Mouse (Thermo 31432), Rabbit (Thermo 31460).

| SMILES | suppression of AKT protein level and AKT activity |
| --- | --- |
| Cc1ncsc1-c1ccc(CNC(=O)[C@@H]2C[C@@H](O)CN2C(=O)[C@@H](NC(=O)COCCOCC(=O)N2CCN(CC[C@H](NC(=O)C3(N)CCN(c4ncnc5[nH]ccc45)CC3)c3ccc(Cl)cc3)CC2)C(C)(C)C)cc1 [XF050-7, 4-amino-N-((S)-1-(4-chlorophenyl)-3-(4-(2-(2-(2-(((S)-1-((2S,4R)-4-hydroxy-2-((4-(4-methylthiazol-5-yl)benzyl)carbamoyl)pyrrolidin-1-yl)-3,3-dimethyl-1-oxobutan-2-yl)amino)-2-oxoethoxy)ethoxy)acetyl)piperazin-1-yl)propyl)-1-(7H-pyrrolo[2,3-d]pyrimidin-4-yl)piperidine-4-carboxamide] | effective in suppressing both AKT protein level and AKT activity |
| Cc1ncsc1-c1ccc(CNC(=O)[C@@H]2C[C@@H](O)CN2C(=O)[C@@H](NC(=O)CCCCC(=O)N2CCN(CC[C@H](NC(=O)C3(N)CCN(c4ncnc5[nH]ccc45)CC3)c3ccc(Cl)cc3)CC2)C(C)(C)C)cc1 [XF050-16, 4-amino-N-((S)-1-(4-chlorophenyl)-3-(4-(6-(((S)-1-((2S,4R)-4-hydroxy-2-((4-(4-methylthiazol-5-yl)benzyl)carbamoyl)pyrrolidin-1-yl)-3,3-dimethyl-1-oxobutan-2-yl)amino)-6-oxohexanoyl)piperazin-1-yl)propyl)-1-(7H-pyrrolo[2,3-d]pyrimidin-4-yl)piperidine-4-carboxamide] | effective in suppressing both AKT protein level and AKT activity |
| Cc1ncsc1-c1ccc(CNC(=O)[C@@H]2C[C@@H](O)CN2C(=O)[C@@H](NC(=O)CCCCCC(=O)N2CCN(CC[C@H](NC(=O)C3(N)CCN(c4ncnc5[nH]ccc45)CC3)c3ccc(Cl)cc3)CC2)C(C)(C)C)cc1 [XF050-17, 4-amino-N-((S)-1-(4-chlorophenyl)-3-(4-(7-(((S)-1-((2S,4R)-4-hydroxy-2-((4-(4-methylthiazol-5-yl)benzyl)carbamoyl)pyrrolidin-1-yl)-3,3-dimethyl-1-oxobutan-2-yl)amino)-7-oxoheptanoyl)piperazin-1-yl)propyl)-1-(7H-pyrrolo[2,3-d]pyrimidin-4-yl)piperidine-4-carboxamide] | effective in suppressing both AKT protein level and AKT activity |
| Cc1ncsc1-c1ccc(CNC(=O)[C@@H]2C[C@@H](O)CN2C(=O)[C@@H](NC(=O)CCCCCCC(=O)N2CCN(CC[C@H](NC(=O)C3(N)CCN(c4ncnc5[nH]ccc45)CC3)c3ccc(Cl)cc3)CC2)C(C)(C)C)cc1 [XF050-18, 4-amino-N-((S)-1-(4-chlorophenyl)-3-(4-(8-(((S)-1-((2S,4R)-4-hydroxy-2-((4-(4-methylthiazol-5-yl)benzyl)carbamoyl)pyrrolidin-1-yl)-3,3-dimethyl-1-oxobutan-2-yl)amino)-8-oxooctanoyl)piperazin-1-yl)propyl)-1-(7H-pyrrolo[2,3-d]pyrimidin-4-yl)piperidine-4-carboxamide] | effective in suppressing both AKT protein level and AKT activity |
| Cc1ncsc1-c1ccc(CNC(=O)[C@@H]2C[C@@H](O)CN2C(=O)[C@@H](NC(=O)CCCCCCCC(=O)N2CCN(CC[C@H](NC(=O)C3(N)CCN(c4ncnc5[nH]ccc45)CC3)c3ccc(Cl)cc3)CC2)C(C)(C)C)cc1 [XF050-19, 4-amino-N-((S)-1-(4-chlorophenyl)-3-(4-(9-(((S)-1-((2S,4R)-4-hydroxy-2-((4-(4-methylthiazol-5-yl)benzyl)carbamoyl)pyrrolidin-1-yl)-3,3-dimethyl-1-oxobutan-2-yl)amino)-9-oxononanoyl)piperazin-1-yl)propyl)-1-(7H-pyrrolo[2,3-d]pyrimidin-4-yl)piperidine-4-carboxamide] | effective in suppressing both AKT protein level and AKT activity |
| Cc1ncsc1-c1ccc(CNC(=O)[C@@H]2C[C@@H](O)CN2C(=O)[C@@H](NC(=O)CCCCCCCCC(=O)N2CCN(CC[C@H](NC(=O)C3(N)CCN(c4ncnc5[nH]ccc45)CC3)c3ccc(Cl)cc3)CC2)C(C)(C)C)cc1 [XF050-20, 4-amino-N-((S)-1-(4-chlorophenyl)-3-(4-(10-(((S)-1-((2S,4R)-4-hydroxy-2-((4-(4-methylthiazol-5-yl)benzyl)carbamoyl)pyrrolidin-1-yl)-3,3-dimethyl-1-oxobutan-2-yl)amino)-10-oxodecanoyl)piperazin-1-yl)propyl)-1-(7H-pyrrolo[2,3-d]pyrimidin-4-yl)piperidine-4-carboxamide] | effective in suppressing both AKT protein level and AKT activity |
| NC1(C(=O)N[C@@H](CCN2CCN(C(=O)CCOCCOCCNc3cccc4c3C(=O)N(C3CCC(=O)NC3=O)C4=O)CC2)c2ccc(Cl)cc2)CCN(c2ncnc3[nH]ccc23)CC1 (stereo partly drawn) [XF050-30, 4-amino-N-((1S)-1-(4-chlorophenyl)-3-(4-(3-(2-(2-((2-(2,6-dioxopiperidin-3-yl)-1,3-dioxoisoindolin-4-yl)amino)ethoxy)ethoxy)propanoyl)piperazin-1-yl)propyl)-1-(7H-pyrrolo[2,3-d]pyrimidin-4-yl)piperidine-4-carboxamide] | effective in suppressing both AKT protein level and AKT activity |
| NC1(C(=O)N[C@@H](CCN2CCN(C(=O)CCOCCOCCOCCNc3cccc4c3C(=O)N(C3CCC(=O)NC3=O)C4=O)CC2)c2ccc(Cl)cc2)CCN(c2ncnc3[nH]ccc23)CC1 (stereo partly drawn) [XF050-31, 4-amino-N-((1S)-1-(4-chlorophenyl)-3-(4-(3-(2-(2-(2-((2-(2,6-dioxopiperidin-3-yl)-1,3-dioxoisoindolin-4-yl)amino)ethoxy)ethoxy)ethoxy)propanoyl)piperazin-1-yl)propyl)-1-(7H-pyrrolo[2,3-d]pyrimidin-4-yl)piperidine-4-carboxamide] | effective in suppressing both AKT protein level and AKT activity |
| NC1(C(=O)N[C@@H](CCN2CCN(C(=O)CCOCCOCCOCCOCCNc3cccc4c3C(=O)N(C3CCC(=O)NC3=O)C4=O)CC2)c2ccc(Cl)cc2)CCN(c2ncnc3[nH]ccc23)CC1 (stereo partly drawn) [XF050-32, 4-amino-N-((1S)-1-(4-chlorophenyl)-3-(4-(1-((2-(2,6-dioxopiperidin-3-yl)-1,3-dioxoisoindolin-4-yl)amino)-3,6,9,12-tetraoxapentadecan-15-oyl)piperazin-1-yl)propyl)-1-(7H-pyrrolo[2,3-d]pyrimidin-4-yl)piperidine-4-carboxamide] | effective in suppressing both AKT protein level and AKT activity |
| C[C@@H]1C[C@@H](O)c2ncnc(N3CCN(C(=O)[C@H](CNCCC(=O)NCCCCCCCCOc4cccc5c4C(=O)N(C4CCC(=O)NC4=O)C5=O)c4ccc(Cl)cc4)CC3)c21 (stereo partly drawn) [XF050-133, 3-(((S)-2-(4-chlorophenyl)-3-(4-((5R,7R)-7-hydroxy-5-methyl-6,7-dihydro-5H-cyclopenta[d]pyrimidin-4-yl)piperazin-1-yl)-3-oxopropyl)amino)-N-(8-((2-(2,6-dioxopiperidin-3-yl)-1,3-dioxoisoindolin-4-yl)oxy)octyl)propanamide] | effective in suppressing both AKT protein level and AKT activity |
| Cc1ncsc1-c1ccc(CNC(=O)[C@@H]2C[C@@H](O)CN2C(=O)[C@@H](NC(=O)CCCCCCCCCCCC(=O)N2CCN(CC[C@H](NC(=O)C3(N)CCN(c4ncnc5[nH]ccc45)CC3)c3ccc(Cl)cc3)CC2)C(C)(C)C)cc1 [XF050-144, 4-amino-N-((S)-1-(4-chlorophenyl)-3-(4-(13-(((S)-1-((2S,4R)-4-hydroxy-2-((4-(4-methylthiazol-5-yl)benzyl)carbamoyl)pyrrolidin-1-yl)-3,3-dimethyl-1-oxobutan-2-yl)amino)-13-oxotridecanoyl)piperazin-1-yl)propyl)-1-(7H-pyrrolo[2,3-d]pyrimidin-4-yl)piperidine-4-carboxamide] | effective in suppressing both AKT protein level and AKT activity |
| Cc1ncsc1-c1ccc(CNC(=O)[C@@H]2C[C@@H](O)CN2C(=O)[C@@H](NC(=O)CCCCCCCCCCCCC(=O)N2CCN(CC[C@H](NC(=O)C3(N)CCN(c4ncnc5[nH]ccc45)CC3)c3ccc(Cl)cc3)CC2)C(C)(C)C)cc1 [XF050-145, 4-amino-N-((S)-1-(4-chlorophenyl)-3-(4-(14-(((S)-1-((2S,4R)-4-hydroxy-2-((4-(4-methylthiazol-5-yl)benzyl)carbamoyl)pyrrolidin-1-yl)-3,3-dimethyl-1-oxobutan-2-yl)amino)-14-oxotetradecanoyl)piperazin-1-yl)propyl)-1-(7H-pyrrolo[2,3-d]pyrimidin-4-yl)piperidine-4-carboxamide] | effective in suppressing both AKT protein level and AKT activity |
